{"source": "patent US5690906A", "about": "(The Trustees of the University of Pennsylvania, priority 1995, dated 1997)", "key": {"[1]": {"biological_target": "D3 receptors (expressed in Sf9 cells) (Rattus norvegicus, UniProt P19020)", "sequence (P19020 whole entry)": "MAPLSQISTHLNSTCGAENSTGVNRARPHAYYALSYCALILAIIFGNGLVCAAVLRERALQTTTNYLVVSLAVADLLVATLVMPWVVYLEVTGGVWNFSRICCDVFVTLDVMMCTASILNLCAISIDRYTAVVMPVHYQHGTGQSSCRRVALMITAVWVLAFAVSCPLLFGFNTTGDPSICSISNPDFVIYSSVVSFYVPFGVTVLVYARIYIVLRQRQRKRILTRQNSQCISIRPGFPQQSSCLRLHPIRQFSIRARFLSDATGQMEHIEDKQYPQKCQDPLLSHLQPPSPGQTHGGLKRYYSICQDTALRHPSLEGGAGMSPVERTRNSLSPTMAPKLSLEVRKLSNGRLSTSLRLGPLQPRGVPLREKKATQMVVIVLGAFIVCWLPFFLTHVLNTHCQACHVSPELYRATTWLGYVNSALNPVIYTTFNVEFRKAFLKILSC", "conditions": "37° C., 120 mM NaCl; for Hill Co.: Table 3, [^125 I]trans-7-OH-PIPAT competition; for Ki: ± SE, [^125 I]trans-7-OH-PIPAT 0.1-0.2 nM", "description": "Plasmid DNA was isolated by alkaline dialysis and purified by CsCl density gradient centrifugation and overnight dialysis for transfection of Sf9 cells. […] A monolayer of Sf9 cells (approximately 2×10^6 cells/T25 plate) was cotransfected by calcium phosphate precipitation, with 1 mg of AcMNPV DNA (provided by Dr. Max Summers, Texas A&M University, College Station, Tex.) and 2 mg of recombinant transfer vector DNA. […] Putative recombinant viral plaques were chosen by visual screening for occlusion-negative plaques and used to infect 1×10^6 Sf9 cells in a 6-well plate (CoStar, Cambridge, Mass.). Four days after infection, cells were harvested and membranes were prepared. An aliquot of membranes was used for radioligand binding. […] The membrane homogenates of AcMNPVrD3 infected Sf9 cells were prepared as described. Briefly, the harvested cells were centrifuged, resuspended and homogenized in buffer containing 50 mM Tris, pH7.4, 150mM NaCl, 10 mM EDTA and a mixture of protease inhibitors (1 mg/ml aprotinin, 1 mg/ml leupeptin, 1 mg/ml soybean trypsin inhibitor, 10 mg/ml PMSF). The final pellets obtained were resuspended in the same buffer and kept at -20° C. for radioligand binding assays.\nBinding assays were performed in glass tubes (12×75 mm) in a final volume of 0.2 ml. The buffer used for the dilution contained 50 mM Tris, pH 7.4, and the protease inhibitors mixture. […] The competition experiments were performed in the presence of 120 mM NaCl. […] After incubation for 30 min at 37° C. or 90 min at 25° C., the bound ligand was separated from the free ligand by filtration through glass fiber filters No. 25 (Schleicher & Schuell, Keene, N.H.) soaked with 0.2% protamine free base. The filters were then washed twice with 4 ml of ice-cold buffer (containing 50 mM Tris-HCl, pH 7.4) and the radioactivity on the filters was counted in a gamma counter (Packard 5000) with 70% efficiency."}, "D2 dopamine receptor": {"biological_target": "T1, D2 dopamine receptor (Rattus norvegicus, UniProt P61169)", "T1 construct": "made in house; host or cells: Sf9 insect cells infected with recombinant baculovirus (AcMNPVrD2L or AcMNPVrD2S), membrane homogenates", "T1 sequence (P61169 whole entry)": "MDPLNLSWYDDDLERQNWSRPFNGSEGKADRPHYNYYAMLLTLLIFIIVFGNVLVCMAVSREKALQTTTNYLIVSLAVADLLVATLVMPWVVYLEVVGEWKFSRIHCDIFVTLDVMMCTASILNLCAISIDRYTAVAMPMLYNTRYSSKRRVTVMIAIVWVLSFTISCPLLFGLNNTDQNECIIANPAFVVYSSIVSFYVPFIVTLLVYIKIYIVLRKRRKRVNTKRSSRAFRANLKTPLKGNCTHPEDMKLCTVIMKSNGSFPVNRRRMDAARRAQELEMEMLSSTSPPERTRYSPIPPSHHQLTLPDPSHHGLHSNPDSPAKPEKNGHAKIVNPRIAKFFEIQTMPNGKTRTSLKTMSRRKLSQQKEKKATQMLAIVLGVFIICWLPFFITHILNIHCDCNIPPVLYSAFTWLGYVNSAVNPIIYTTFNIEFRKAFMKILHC", "experiment": "Inhibition of [^125 I]NCQ298 binding to D2 dopamine receptors expressed in Sf9 cells", "conditions": "for HC D2: Table 4, Hill coefficient"}, "D3 dopamine receptor": {"biological_target": "T2, D3 dopamine receptor (Rattus norvegicus, UniProt P19020)", "T2 construct": "made in house; host or cells: Sf9 insect cells infected with recombinant baculovirus AcMNPVrD3, membrane homogenates", "T2 sequence (P19020 whole entry)": "as the sequence (P19020 whole entry) above", "experiment": "Inhibition of [^125 I]NCQ298 binding to D3 dopamine receptors expressed in Sf9 cells", "conditions": "for HC D3: Table 4, Hill coefficient; for Ratio D2/D3: Ki(D2)/Ki(D3)", "method": "The construction of pVL1393-rD3 was previously described. […] An aliquot of membranes was used for radioligand binding.\nMembranes from AcMNPV-rD3 infected Sf9 cells were prepared. […] Assays were incubated at 37° C. for 20 min. then filtered and washed as described above."}, "5-HT1A receptor": {"biological_target": "T3, 5-HT1A receptor (Rattus norvegicus, UniProt P19327)", "T3 construct": "from tissue; host or cells: rat hippocampus membrane homogenates", "T3 sequence (P19327 1-422)": "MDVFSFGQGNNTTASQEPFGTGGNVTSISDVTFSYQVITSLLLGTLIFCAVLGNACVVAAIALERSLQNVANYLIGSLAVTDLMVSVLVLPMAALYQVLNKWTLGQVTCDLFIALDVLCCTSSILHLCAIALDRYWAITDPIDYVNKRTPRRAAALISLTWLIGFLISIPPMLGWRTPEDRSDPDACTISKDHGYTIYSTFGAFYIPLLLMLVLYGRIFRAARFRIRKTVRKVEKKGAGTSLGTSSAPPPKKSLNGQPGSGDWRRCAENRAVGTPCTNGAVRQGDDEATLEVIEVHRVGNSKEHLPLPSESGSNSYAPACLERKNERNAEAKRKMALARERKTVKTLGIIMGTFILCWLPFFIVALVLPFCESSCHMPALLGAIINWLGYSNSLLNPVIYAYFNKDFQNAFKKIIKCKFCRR", "experiment": "Inhibition of [^3 H]-8-OH-DPAT binding to rat hippocampal membrane homogenates", "conditions": "against [^3 H]-8-OH-DPAT, rat hippocampus membranes; read-out: K1 (inhibition constant)", "method": "The hippocampal homogenates were prepared in 100 volumes of ice-cold Tris-HCl buffer (50mM, pH 7.4) and centrifuged at 20,000 g for 20 minutes. […] The final pellets were resuspended in the Tris-buffer containing 2mM of MgCl2. […] The tubes were incubated at 37° C. for fifteen minutes and then terminated by vacuum filtration through glass filters (Schleicher & Schuell, No. 25, Keene, N.H.) soaked with 1% polyethylimine. […] Both Scatchard and competition experiments were analyzed using the iterative least-squarecurve fitting program LIGAND."}, "[2]": {"conditions": "Table 4 and its discussion, [^125 I]-NCQ298 0.05 nM, 37° C., 20 min, read-out: Ki D2"}, "[3]": {"conditions": "Table 4 and its discussion, [^125 I]-NCQ298 0.1 nM, 37° C., 20 min, read-out: Ki D3"}}, "note": "Read-outs that look alike come from different tables or passages of the source."}
{"smiles": "NCCc1c[nH]c2ccc(O)cc12", "note": "[5-HT]", "values": [{"measurement": "Hill Co.", "setting": "[1]", "value": 0.90}, {"measurement": "Ki", "setting": "[1]", "value": "2340 ± 420", "unit": "nM"}]}
{"smiles": "CCCN(CCC)C1CCc2cccc(O)c2C1", "note": "(racemic) [8-OH-DPAT, 8-hydroxy-2-(di-n-propylamino)tetralin]", "values": [{"measurement": "Hill Co.", "setting": "[1]", "value": 0.78}]}
{"smiles": "COc1ccc2c(c1)CC(NCc1ccccc1)CC2", "note": "(stereo not drawn) [7-MeO-BAT, 7Methoxy-2-N-Benzylaminotetralin]", "values": [{"measurement": "HC D2", "setting": "D2 dopamine receptor", "value": 0.78}, {"measurement": "Ki", "setting": "D2 dopamine receptor; [2]", "value": "5880 ± 471", "unit": "nM"}, {"measurement": "HC D3", "setting": "D3 dopamine receptor", "value": 0.80}, {"measurement": "Ratio D2/D3", "setting": "D3 dopamine receptor; Table 4 and its discussion", "value": 3.1}, {"measurement": "Ki", "setting": "D3 dopamine receptor; [3]", "value": "1870 ± 224", "unit": "nM"}]}
{"smiles": "CCCN(C/C=C/I)C1CCc2ccc(O)cc2C1", "note": "(stereo not drawn) [trans-7-OH-PIPAT]", "values": [{"measurement": "Ki", "setting": "D2 dopamine receptor; Table 2, ± SE, [^125 I]NCQ298, Sf9 cells, read-out: Ki D2", "value": "265 ± 36", "unit": "nM"}, {"measurement": "HC D2", "setting": "D2 dopamine receptor", "value": 0.96}, {"measurement": "Ki", "setting": "D2 dopamine receptor; [2]", "value": "265 ± 48", "unit": "nM"}]}
{"smiles": "CCCNC1CCc2ccc(OC)cc2C1", "note": "(stereo not drawn) [7-MeO-MPAT, 7Methoxy-2-N-n-Propylaminotetralin]", "values": [{"measurement": "Ki", "setting": "D2 dopamine receptor", "value": "5176 ± 0.96", "unit": "nM"}, {"measurement": "HC D2", "setting": "D2 dopamine receptor", "value": 0.96}, {"measurement": "Ki", "setting": "D3 dopamine receptor", "value": "1310 ± 249", "unit": "nM"}, {"measurement": "HC D3", "setting": "D3 dopamine receptor", "value": 0.97}, {"measurement": "Ratio D2/D3", "setting": "D3 dopamine receptor; Table 4 and its discussion", "value": 4.0}]}
{"smiles": "CCCN(C/C=C/I)C1CCc2ccc(OC)cc2C1", "note": "(stereo not drawn) [7-MeO-PIPAT, 7Methoxy-2-[N-3'-(1'-Iodo-1'E-Propenyl)-N-n-Propylamino]tetralin]", "values": [{"measurement": "HC D2", "setting": "D2 dopamine receptor", "value": 1.22}, {"measurement": "Ki", "setting": "D2 dopamine receptor; [2]", "value": "1380 ± 193", "unit": "nM"}, {"measurement": "HC D3", "setting": "D3 dopamine receptor", "value": 0.93}, {"measurement": "Ratio D2/D3", "setting": "D3 dopamine receptor; Table 4 and its discussion", "value": 5.4}, {"measurement": "Ki", "setting": "D3 dopamine receptor; [3]", "value": "257 ± 31", "unit": "nM"}]}
{"smiles": "COc1cccc2c1CC(NC/C=C/I)CC2", "note": "(racemic) [(±)trans-8-OMe-IPAT, 8-Methoxy-2-(N-3'-iodo-2'-propenyl) aminotetralin]", "values": [{"measurement": "Ki", "setting": "5-HT1A receptor", "value": "17 ± 2.2", "unit": "nM"}]}
{"smiles": "Oc1ccc2c(c1)CC(NCc1ccccc1)CC2", "note": "(stereo not drawn) [7-OH-BAT, 7Hydroxy-2-N-n-Benzylaminotetralin]", "values": [{"measurement": "HC D2", "setting": "D2 dopamine receptor", "value": 0.80}, {"measurement": "Ki", "setting": "D2 dopamine receptor; [2]", "value": "1860 ± 261", "unit": "nM"}, {"measurement": "affinity / selectivity for the D3 receptor", "setting": "D3 dopamine receptor", "value": "lowest affinity for the D3 receptor"}, {"measurement": "HC D3", "setting": "D3 dopamine receptor", "value": 1.00}, {"measurement": "Ratio D2/D3", "setting": "D3 dopamine receptor; Table 4 and its discussion", "value": 4.8}, {"measurement": "Ki", "setting": "D3 dopamine receptor; [3]", "value": "391 ± 47", "unit": "nM"}]}
{"smiles": "CCN1CCC[C@H]1CNC(=O)c1c(O)c(Cl)cc(Cl)c1OC", "note": "[Raclopride]", "values": [{"measurement": "Hill Co.", "setting": "[1]", "value": 0.78}, {"measurement": "Ki", "setting": "[1]", "value": "9.25 ± 2.3", "unit": "nM"}]}
